In patent US6867305B2, “Synthesis of epothilones, intermediates thereto and analogues thereof” (Sloan-Kettering Institute for Cancer Research, priority 1996, dated 2005):
Where two headings read alike, the source gives them in different places.

How the values were obtained:
[1] = system: HCT-116 colon carcinoma xenograft; test: Human tumor xenograft in nude mice; type: in vivo; conditions: HCT-116, i.v. infusion
From the text: Therapeutic efficacy of cancer chemotherapeutic agents varies with various factors including the tumor models used and the dosage of drug and schedules and routes of administration. […] In the present studies, we intended to compare the therapeutic effects of drugs near their maximal tolerated doses by measuring the extent of body-weight decreases and/or lethality.
(§1) Depending on the tumor type, treatment started on day 10 to day 21 when subcutaneous tumor size reached 35-200 mm^3, except otherwise indicated. Tumor size and body-weight were recorded every other day (Q2D) and, for humane reasons, the animals were sacrificed when tumor size reached ≧10% of body-weight. Each group, including untreated control, consisted of 3-5 animals unless otherwise indicated.
(§2) Athymic nude mice bearing the nu/nu gene were used for all human tumor xenografts. Outbred, Swiss-background mice were obtained from Charles River Laboratories. Male mice 8 weeks or older weighing 22 g and up were used for most experiments. The drug was administered via the tail vein for 6 hr.-i.v. infusion. Each individual mouse was confined in a perforated Falcon polypropylene tube restrainer for drug administration. Tumor volume was assessed by measuring length×width×height (or width) using a caliper. The programmable Harvard PHD2000 syringe pump (Harvard Apparatus) with multi-track was used for i.v. infusion. […] All animal studies were conducted in accordance with the guidelines of the National Institutes of Health “Guide for the Care and Use of Animals” and the protocol approved by the Memorial Sloan-Kettering Cancer Center's Institutional Animal Care and Use Committee. In keeping with the policy of this committee for the humane treatment of tumor-bearing animals, mice were euthanized when tumors reached ≧10% of their total body weight.
(§3) Human tumor cells (5×10^6) or tumor tissue (30-50 mg) were implanted s.c. flank in nu/nu mice (Charles River Laboratories, Wilmington, Mass.). When tumor grew to a specified size, treatment was started by every-other day×5 with 6 hr i.v.-infusion, unless otherwise indicated. Tumor volume was measured with calipers in three dimensions (length×width×height or width). Body-weight changes and lethality were monitored every other day.

[2] = system: CCRF-CEM/VM1 (teniposide-resistant subline); test: Tumor cell growth inhibition in vitro (XTT, 72 h); type: cell-based, human; conditions: Homo sapiens, CCRF-CEM, 72 h
Procedure: (§4) The fresh medium containing each drug was replenished every 7-14 days. […] In each case ,the drug-exposed cells were resuspended in fresh media for a minimum of 4 days before the experiments for the cell-growth inhibition was carried out.
(§5) The cells were cultured at an initial density of 2-5×10^4 cells per ml. They were maintained in a 5% CO2-humidified atmosphere at 37° C. in RPMI mediun 1640 (GIBCO/BRL) containing penicillin (100 units/ml), streptomycin (100 μg/ml) (GIBCO/BRL), and 5% heat-inactivated fetal bovine serum. For solid tumor cells growing in a monolayer (such as MCF-7/Adr), cytotoxicitiy of the drug was determined in 96-well microtiter plates by using the sulforhodamine B method as described by Skehan et al (23) for measuring the cellular protein content. For cells that were grown in suspension (such as CCRF-CEM and its sublines), cytotoxicitiy was measured by using the 2,-3-bis(2-methoxy-4-nitro-5-sulfophenyl)-5carboxanilide)-2H terazodium hydroxide (XTT)-microculture tetrazonium method (24) in duplicate in 96-well microtiter plates. For both methods, the absorbance of each well was measured with a microplate reader (EL-340, Bio-Tek, Burlington, Vt.). Each run entailed six or seven concentrations of the tested drugs. Dose-effect relationship data were analyzed with the median-effect plot (25) by using a previously described computer program (26).

[3] = system: CCRF-CEM/VM2; test: Cell growth inhibition, resistant subline; type: cell-based, human
Procedure: as §4, §5

[4] = system: CCRF-CEM human T-cell acute lymphoblastic leukemia cells; test: Tumor cell growth inhibition in vitro (XTT, 72 h); type: cell-based; conditions: for IC50: CCRF-CEM, 72 h incubation
Procedure: as §4, §5

[5] = system: PC-3 prostate adenocarcinoma xenograft; test: Human tumor xenograft in nude mice; type: in vivo
Procedure: as §1, §2, §3

[6] = system: A549 lung carcinoma xenograft; test: Human tumor xenograft in nude mice; type: in vivo; conditions: A549, i.v. infusion
Procedure: as §1, §2, §3

[7] = system: MCF-7/Adr mammary xenograft; test: Human tumor xenograft in nude mice; type: in vivo
[8] = system: MX-1 mammary carcinoma xenograft; conditions: MX-1, i.p., ref 19 (Table 4)
[9] = system: UL-3-B/Taxol
[10] = system: MX-1 human mammary carcinoma; test: Tumor cell growth inhibition in vitro; type: cell-based
Procedure: as §5, with “They were maintained in a 5% CO2-humidified atmosphere at 37° C. in RPMI mediun 1640 (GIBCO/BRL) containing penicillin (100 units/ml), streptomycin (100 μg/ml) (GIBCO/BRL), and 5% heat-inactivated fetal bovine serum.” left out

[11] = system: UL-3-C ovarian adenocarcinoma; test: Tumor cell growth inhibition in vitro; type: cell-based, human; conditions: read-out: IC50
Procedure: as §4, §5

[12] = Body-weight decrease and lethality in tumor-bearing nude mice; conditions: nude mice
Procedure: as §1
Essential features of useful cancer therapeutic agent involve not only high efficiency against cancer but also low toxicity toward the host, especially toward vital organs or functions [i.e. wide therapeutic window or high therapeutic index (LD50/ED50)].
as §3

[13] = system: B16 Melanoma; type: in vivo, murine; conditions: B16 Melanoma, i/p, maximal tolerated doses
[14] = system: CCRF-CEM/Taxol (paclitaxel-resistant subline); test: Tumor cell growth inhibition in vitro (XTT, 72 h); type: cell-based, human
Procedure: as §4, §5

[15] = system: CCRF-CEM/VBL100 (vinblastine-resistant subline); test: Tumor cell growth inhibition in vitro (XTT, 72 h); type: cell-based, human
Procedure: as §4, §5

[16] = system: K562 human chronic myeloblastic leukemia; test: Tumor cell growth inhibition in vitro; type: cell-based; conditions: Homo sapiens, K562, K562
Procedure: as §5, with “They were maintained in a 5% CO2-humidified atmosphere at 37° C. in RPMI mediun 1640 (GIBCO/BRL) containing penicillin (100 units/ml), streptomycin (100 μg/ml) (GIBCO/BRL), and 5% heat-inactivated fetal bovine serum.” left out

[17] = system: K562 chronic myelocytic leukemia xenograft; test: Human tumor xenograft in nude mice; type: in vivo
Procedure: FIG. 34 depicts tumor size in nude mice bearing human leukemia […] tumor following 6 mg/kg C-15-Aza-EpoB, Q2D×6 and 30 mg/kg dEpoF, Q2ED×6 (i.v. infusion […].). K562 tumor cells (1×10^7 in 0.2 mL) were inoculated to nude mice on day 0. Mice were treated with 6 mg/kg aza-EpoB, 6 h-i.v. infusion on days 20, 22, 24, 26, 28 and 30 (Δ, n=3). The same group of mice were then treated with 30 mg/kg dEpoF, 6 h-i.v. infusion on days 42, 44, 46, 48, 52, and 54 (Δ, n=3). […] The control mice (∘, n=3) received vehicle only.
K562 tumor cells (1×10^7, in 0.2 ml/mouse) were implanted s.c. on day 0. […] The control mice (∘, n=4) received vehicle, Cremophor-ethanol (1:1), only. The vertical bars indicate mean tumor size in mm^3±S.E.
as §1, §2, §3

[18] = system: MCF-7 human mammary adenocarcinoma; test: Tumor cell growth inhibition in vitro; type: cell-based; conditions: read-out: IC50
Procedure: as §5, with “They were maintained in a 5% CO2-humidified atmosphere at 37° C. in RPMI mediun 1640 (GIBCO/BRL) containing penicillin (100 units/ml), streptomycin (100 μg/ml) (GIBCO/BRL), and 5% heat-inactivated fetal bovine serum.” left out

[19] = system: MCF-7/Adr; test: Tumor cell growth inhibition in vitro; type: cell-based, human; conditions: MCF-7/Adr
Procedure: as §5, with “They were maintained in a 5% CO2-humidified atmosphere at 37° C. in RPMI mediun 1640 (GIBCO/BRL) containing penicillin (100 units/ml), streptomycin (100 μg/ml) (GIBCO/BRL), and 5% heat-inactivated fetal bovine serum.” left out

In the case of `CCc1c2c(nc3ccc(OC(=O)N4CCC(N5CCCCC5)CC4)cc13)-c1cc3c(c(=O)n1C2)COC(=O)[C@]3(O)CC` [CPT-11, Irinotecan, reference compound], the “Therapeutic Effect Rank Order” value [1] is reported as “Taxol, CPT-11≈dEpoB, dEpoF”.
With `COc1cc([C@@H]2c3cc4c(cc3[C@@H](O[C@@H]3O[C@@H]5CO[C@@H](C)O[C@H]5[C@H](O)[C@H]3O)[C@H]3COC(=O)[C@H]23)OCO4)cc(OC)c1O` [Etoposide, etoposide, reference compound] the IC50 [2] was 3.44 µM, the “fold resistance vs original CCRF-CEM” value ([3]; CCRF-CEM/VM2) was 69 fold and the IC50 ([3]; Homo sapiens, CCRF-CEM/VM2, exposed to teniposide 12 months) was 19.8 µM. For the same compound, the IC50 [4] was 29 nM, the “Therapeutic Effect Rank Order” value ([5]; PC-3, i.v. infusion) was “Taxol, VBL>dEpoB>>VP-16” and the “Therapeutic Effect Rank Order” value [6] was “Taxol, dEpoB, VBL>VP-16”. For the same compound, the “Therapeutic Effect Rank Order” value ([7]; i.v. infusion) was “dEpoB>>VP-16, Taxol>VBL, Adriamycin”.
In the case of `C/C(=C\c1csc(C)n1)[C@@H]1C[C@@H]2O[C@]2(C)CCC[C@H](C)[C@H](O)[C@@H](C)C(=O)C(C)(C)[C@@H](O)CC(=O)O1` [EpoB, epothilone B, reference compound], the “Therapeutic Effect Rank Order” value [8] is reported as “dEpoB>Camptothecin>Taxol>VBL, EpoB”, the IC50 ([9]; UL-3-B/Taxol) is reported as 1.24 nM and the “cross-resistance (fold of resistance vs parent cell line)” value ([9]; UL-3-B/Taxol vs UL-3-C) is reported as 2.1 x. The IC50 [10] was 1.84 nM, the IC50 [11] was 0.58 nM and the “drop in body-weight that led to lethality” value [12] was 14-20%. The “Therapeutic Effect Rank Order” value [13] was “dEpoB>Taxol>>EpoB”.
For `C/C1=C/CC(/C(C)=C/c2csc(C)n2)NC(=O)CC(O)C(C)(C)C(=O)[C@H](C)[C@@H](O)[C@@H](C)CCC1` (stereo partly drawn) [aza-dEpoB, 12,13,15-desoxy-15(S)-aza-epothilone B], the “cross-resistance (fold of resistance vs parent cell line)” value ([14]; CCRF-CEM/Taxol vs CCRF-CEM) was 38.4 x, the IC50 ([14]; Homo sapiens, CCRF-CEM, 72 h) was 791 nM and the “cross-resistance (fold of resistance vs parent cell line)” value ([15]; CCRF-CEM/VBL100 vs CCRF-CEM) was 35.8 x. For the same compound, the IC50 ([15]; Homo sapiens, CCRF-CEM, 72 h) was 997 nM, the IC50 ([4]; Homo sapiens, 72 h) was 27.8 nM and the “potency relative to aza-EpoB (fold less potent)” value ([4]; in vitro cell lines) was “about 10 fold”. For the same compound, the IC50 [16] was 2.4 nM.
For `COc1cccc2c1C(=O)c1c(O)c3c(c(O)c1C2=O)C[C@@](O)(C(=O)CO)C[C@@H]3O[C@H]1C[C@H](N)[C@H](O)[C@H](C)O1` [Adriamycin, doxorubicin, reference compound], the “Therapeutic Effect Rank Order” value ([17]; K562, i.v. infusion, FIG. 3 & 4) was “dEpoB>>>VBL> Taxol> Adriamycin”, the therapeutic effect ([17]; K562, dEpoB 30 mg/kg, Taxol 20 mg/kg 6 hr i.v. infusion, Adriamycin 3 mg/kg, vinblastine 2.5 mg/kg i.v., every other day from day 20 (FIG. 36)) was “only partial curative or remissive effects” and the IC50 ([18]; Homo sapiens, MCF7, MCF-7) was 81 nM. The IC50 ([18]; MCF-7) was 90 nM, the “Therapeutic Effect Rank Order” value ([5]; PC-3, i.v. or i/p.) was “Taxol>dEpoB>>Adriamycin” and the “Therapeutic Effect Rank Order” value ([7]; i.p., ref 19 (Table 5)) was “dEpoB>Camptothecin>Adriamycin>Taxol”. The “Therapeutic Effect Rank Order” value ([7]; i.v. infusion) was “dEpoB>>VP-16, Taxol>VBL, Adriamycin”, the IC50 ([19]; Homo sapiens, NCI/ADR-RES) was 280 nM and the IC50 [19] was 316 nM.
